Experiments:
IFNβ mRNA = IFNβ mRNA expression in liver after intravenous administration; assay type: in vivo, C57BL/6 mice; settings: 20 μg intravenously; 4 hours
Method: The effect of administration of exosomes containing STING agonist CL656 on gene expression in C57BL/6 liver was investigated.
After thawing, exosomes in buffer B composition containing STING agonist CL656 was stored at 4° C. and 22° C. for 24 h or 72 h as described in Example 5. PBS, CL656 (20 μg), exosomes, or exosomes in buffer B containing STING agonist CL656 that incubated as described above (600 ng of CL656 per mouse) were administered into C57BL/6 mice intravenously. As a control, exosomes in buffer B composition containing STING agonist CL656 that were stored at −80° C. (6 ng, 60 ng, and 600 ng per mouse) were administered (considered as 0 h). After 4 hours, mice were euthanized and liver was collected. Total RNA was isolated from liver by using RNeasy Lipid Mini Kit (Qiagen) and expression level of IFNβ mRNA was determined by RT-qPCR. Relative expression was normalized against housekeeping gene RPS13. FIG. 3C provides the results from the liver study.

[1] = Intratumoral concentration of STING agonist in B16-F10 melanoma tumors; assay type: in vivo, C57BL/6 mice; settings: 0.3 μg of CL656 intratumoral dose; after about 360 minutes
Method: The intratumoral concentration of STING agonist in Buffer B over time was investigated.
Briefly, B16-F10 melanoma cells were subcutaneously transplanted into C57BL/6 mice. When dermal tumors were visible, each animal received an intratumoral dose of either free STING agonist (0.3 μg of CL656) or exosome-encapsulated STING agonist (0.3 μg of CL656). Intratumoral concentration of free STING agonist and exosome-encapsulated STING agonist was measured at 5, 30, 120, 360, 1440, and 2880 minutes after injection. […] Further shown in FIG. 3D, the concentration of exosome-encapsulated STING agonist fell slowly to about 100 nM at 1440 minutes. Thereafter, the concentration of exosome-encapsulated STING agonist was steady at about 100 nM until the last measurement was taken at 2880 minutes.

intratumoral concentration [1]: not detectable
Structure (SMILES): Nc1ncnc2c1ncn2[C@@H]1O[C@@H]2COP(=O)(S)O[C@H]3[C@@H](F)[C@H](n4cnc5c(=O)[nH]cnc54)O[C@@H]3COP(O)(=S)O[C@H]2[C@H]1F (some centres unmarked) [CL656]
IFNβ mRNA in liver (RT-qPCR, normalized against RPS13) (IFNβ mRNA): low level

From patent US20240099973A1, “EXTRACELLULAR VESICLE COMPOSITIONS” (LONZA SALES AG, priority 2019, published 2024)
